Molecules are shown by their SMILES. Read-outs that look alike come from different tables or passages of the source.

A short description of the data set: Measurement of LogP values by HPLC on reversed phase columns (EEC directive 79/831 Annex V.A8). Type of data set: physicochemical. To be noted: for chromatographic logP: reversed-phase HPLC column (Agilent Zorbax Eclipse C18). As for the experimental part: Measurement of LogP values was performed according to EEC directive 79/831 Annex V.A8 by HPLC (High Performance Liquid Chromatography) on reversed phase columns (Agilent Zorbax Eclipse C18) with the following methods: • ^[a] LogP value is determined by measurement of LC-UV and/or MS and/or ELS, in an acidic range, with 0.1% formic acid in water and acetonitrile as eluent (linear gradient from 10% acetonitrile to 95% acetonitrile). • ^[b] LogP value is determined by measurement of LC-UV and/or MS and/or ELS, in a neutral range, with 0.001 molar ammonium acetate solution in water and acetonitrile as eluent (linear gradient from 10% acetonitrile to 95% acetonitrile). If more than one LogP value is available within the same method, all the values are given and separated by "+". Calibration was done with straight-chain alkan2-ones (with 3 to 16 carbon atoms) with known LogP values (measurement of LogP values using retention times with linear interpolation between successive alkanones). Lambda-max-values were determined using UV-spectra from 200 nm to 400 nm and the peak values of the chromatographic signals.

[1] abbreviates: method [a]: acidic range, 0.1% formic acid in water and acetonitrile as eluent (linear gradient 10% to 95% acetonitrile).
Setting [2] is: [Method A] as printed in the preparation examples (taken as method [a], acidic range).

For the compound `CCOC(=O)c1cnn(Cc2ccc(-c3noc(C(F)(F)Cl)n3)cc2F)c1` [1.01, ethyl 1-(4-{5-[chloro(difluoro)methyl]-1,2,4-oxadiazol-3-yl}-2-fluorobenzyl)-1H-pyrazole-4-carboxytate], the LogP is 3.98^[a].
With `CCOC(=O)c1cnn(Cc2ccc(-c3noc(C(F)(F)Cl)n3)s2)c1` [1.02, ethyl 1-[(5-{5-[chloro(difluoro)methyl]-1,2,4-oxadiazol-3-yl}-2-thienyl)methyl]-1H-pyrazole-4-carboxylate], the chromatographic logP under setting [1] amounted to 3.81.
Take `C#Cc1ccn(Cc2ccc(-c3noc(C(F)(F)Cl)n3)cc2)n1` [1.03, 5-[chloro(difluoro)methyl]-3-{4-[(3-ethynyl-1H-pyrazol-1-yl)methyl]phenyl}-1,2,4-oxadiazole]: the chromatographic logP stood at 3.31 under setting [2] and 3.81 under setting [1].
As for `CONC(=O)N(Cc1ccc(-c2noc(C(F)(F)Cl)n2)cc1)OC` [1.04, 1-(4-{5-[Chloro(difluoro)methyl]-1,2,4-oxadiazol-3-yl}benzyl)-1,3-dimethoxyurea], the chromatographic logP under setting [2] was 2.92 and the chromatographic logP under setting [1] was determined as 2.92.
As to `COC(C)C(=O)N(Cc1ccc(-c2noc(C(F)(F)Cl)n2)cc1)OC` (stereo not shown) [1.05, N-(4-{5-[chloro(difluoro)methyl]-1,2,4-oxadiazol-3-yl}benzyl)-N,2-dimethoxypropan-amide], the chromatographic logP is 3.31 under setting [2] and 3.31 under setting [1].
Under setting [2], `CCOC(=O)c1cnn(Cc2ccc(-c3noc(C(F)(F)Cl)n3)cc2F)c1` [I.01] showed a log partition coefficient (LogP) of 3.98.
Still for that read-out and setting: to `CCOC(=O)c1cnn(Cc2ccc(-c3noc(C(F)(F)Cl)n3)s2)c1` [I.02] belongs 3.81.
On to `Cc1ccc(C(N)=NO)s1` [N'-hydroxy-5-methylthiophene-2-carboximidamide], for which, under “[Method B] as printed in the preparation examples (taken as method [b], neutral range, 0.001 molar ammonium acetate)”, the chromatographic logP is 1.17.
Compound `CONCc1ccc(-c2noc(C(F)(F)Cl)n2)cc1` [V-a, 1-[4-[5-[Chloro(difluoro)methyl]-1.2.4-oxadiazol-3-yl]phenyl]-N-methoxy-methanamine] registered a chromatographic logP under setting [2] of 3.09 and a chromatographic logP under setting [1] of 3.09.
`OCc1ccc(-c2noc(C(F)(F)Cl)n2)cc1F` [VIII"-a, (4-{5-[chloro(difluoro)methyl]-1,2,4-oxadiazol-3-yl}-2-fluorophenyl)methanol] came in with a chromatographic logP under setting [2] of 2.98 and a chromatographic logP under setting [1] of 2.98.
Consider `Fc1cc(-c2noc(C(F)(F)Cl)n2)ccc1CBr` [VIII'-a, 3-[4-(bromomethyl)-3-fluorophenyl]-5-[chloro(difluoro)methyl]-1,2,4-oxadiazole], for which the chromatographic logP is 4.66 under setting [2] and 4.66 under setting [1].
On to `FC(F)(Cl)c1nc(-c2ccc(CBr)s2)no1` [VIII'-b, 3-[5-(bromomethyl)-2-thienyl]-5-[chloro(difluoro)methyl]-1,2,4-oxadiazole], for which the chromatographic logP reads like this: under setting [2], 4.2; under setting [1], 4.2.
Take `FC(F)(Cl)c1nc(-c2ccc(CBr)cc2)no1` [VIII'-c, 3-[4-(Bromomethyl)phenyl]-5-(chlorodifluoromethyl)-1,2,4-oxadiazole]: the chromatographic logP reads like this: under setting [2], 4.48; under setting [1], 4.48.
In the case of `Cc1ccc(-c2noc(C(F)(F)Cl)n2)s1` [X-a, 5-[chloro(difluoro)methyl]-3-(5-methyl-2-thienyl)-1,2,4-oxadiazole], the chromatographic logP was 4.18 under setting [2] and 4.18 under setting [1].
Regarding `Cc1ccc(-c2noc(C(F)(F)Cl)n2)cc1` [X-b, 3-(4-Methylphenyl)-5-(chlorodifluoromethyl)-1,2,4-oxadiazole], the chromatographic logP runs as follows: under setting [2], 4.55; under setting [1], 4.55.
